{
  "source": "patent US20100267928A1",
  "about": "“ACTIVATABLE DIAGNOSTIC AND THERAPEUTIC COMPOUND” (priority 2007, published 2010)",
  "key": {"LN18 glioma cells": {"tested_on": "LN18 glioma cells", "assay": "FACS analysis of fluorescence-stained cells", "assay_type": "cell-based, human", "conditions": "depending on the concentration; FIG. 5", "method": "(§1) The FACS analysis was performed on a Becton-Dickinson FACSCalibur. [[…] of the cell suspension (1×10^6 cells+[…] FACS buffer (DPBS buffer with 1% paraformaldehyde)]. Approximately 25.000 to 35.000 cells were measured per sample [fluorescence excitation: argon-ion laser (480 nm), fluorescence detection: 540 to 565 nm band-path filter]. The tests were repeated two times."}, "[1]": {"tested_on": "LN18 and U373 glioma cells", "assay": "Confocal laser scanning microscopy (CLSM) and FACS, staining of cell nuclei", "assay_type": "cell-based, human", "conditions": "130 μM, APMA-containing medium, MMP-2 inactive/inhibited", "method": "as §1"}, "[2]": {"tested_on": "intra-cerebral LN18 brain tumors", "assay": "In vivo magnetic resonance tomography of nude mice with implanted glioma", "method": "Female nude mice CD1(Nu/Nu) were obtained from Charles River (Sulzfeld, Germany) (weight: 25 g; age: 7 weeks). Human LN18 glioma cells were grown and implanted into the brain as described by Friese et al. (2003), MICA/NKG2D-mediated Immunogene Therapy of Experimental Gliomas, Cancer Res. 63(24): 8996-9006. The tests were performed 3 weeks after the implantation.\n3.6 mg of the compound 4A were dissolved in 1 ml isotonic saline solution and intraperitoneally injected into 2 mice. Further, 3.6 mg of compound 4A were dissolved in 1 ml isotonic saline solution together with 0.5 mg MMP-2 inhibitor I, and in intraperitoneally injected into 2 mice. A mouse was used as control which were injected with 1 ml pure saline solution. Narcosis was performed with ketamine (100 mg/kg) and xylazine (10 mg/kg) intraperitoneally.\nMRT was performed with a 3 Tesla full body apparatus (Trio. Siemens).\nThe mice were placed face down in a wrist array coil.\nThe MRT protocol consisted of the following sequences:\nTse 3D sequence: slice thickness 0.3125 mm, field of view read 63 mm, field of view phase 100.0%, base resolution 256, phase resolution 100%, slice resolution 100%, voxel seize 0.2×0.2×0.3 mm, slab group 1, slabs 1, slices per slab 16, TR 300 ms, TE 15 ms, flip angle 70, distance factor 50, scan time 12:02 min.\nT1 weighted transverse images: slice thickness 2 mm, field of view read 31 mm, field of view phase 82.3%, voxel seize 0.2×0.2×2 mm, TR 600 ms, TE 18 ms, flip angle 180, number of slices 12, distance factor 0, scan time 11:35 min."}, "[3]": {"tested_on": "LN18 and U373 glioma cells", "conditions": "130 μM; APMA-containing medium without inhibitor", "method": "Human malignant glioma cells (U373 and LN18) were seated into 25 cm^2 culture flasks which contained 3 ml RPMI medium. This was left as it is for one day so that enough matrix metalloprotenases (MMP-2) could accumulate.\nIn a second test the same compounds were again dissolved in the media of 12 flasks (130 μM), however now with MMP-2 inhibitor I (Calbiochem).\nAs a control four small flasks were used wherein both cell lines were incubated in a one day old medium with and also without APMA.\nFor the confocal laser scanning microscopy an inverted LSM510 laser scanning microscope (Karl Zeiss, Jena, Deutschland) (Objectives: LD Achroplan 40×0.6, Plan Neofluar 20×0.50, 40×0.75) was used [fluorescence excitation at 488 nm (argon-ion laser) and […] (helium-neon laser)]. Superimposed images of FITC- and alexa-stained cells were produced. All measurements were performed on living, non-fixed cells for three times."}, "MMP-2": {"biological_target": "T1, MMP-2 (Homo sapiens, UniProt P08253)", "T1 construct": "purchased Calbiochem", "T1 sequence (P08253 110-660)": "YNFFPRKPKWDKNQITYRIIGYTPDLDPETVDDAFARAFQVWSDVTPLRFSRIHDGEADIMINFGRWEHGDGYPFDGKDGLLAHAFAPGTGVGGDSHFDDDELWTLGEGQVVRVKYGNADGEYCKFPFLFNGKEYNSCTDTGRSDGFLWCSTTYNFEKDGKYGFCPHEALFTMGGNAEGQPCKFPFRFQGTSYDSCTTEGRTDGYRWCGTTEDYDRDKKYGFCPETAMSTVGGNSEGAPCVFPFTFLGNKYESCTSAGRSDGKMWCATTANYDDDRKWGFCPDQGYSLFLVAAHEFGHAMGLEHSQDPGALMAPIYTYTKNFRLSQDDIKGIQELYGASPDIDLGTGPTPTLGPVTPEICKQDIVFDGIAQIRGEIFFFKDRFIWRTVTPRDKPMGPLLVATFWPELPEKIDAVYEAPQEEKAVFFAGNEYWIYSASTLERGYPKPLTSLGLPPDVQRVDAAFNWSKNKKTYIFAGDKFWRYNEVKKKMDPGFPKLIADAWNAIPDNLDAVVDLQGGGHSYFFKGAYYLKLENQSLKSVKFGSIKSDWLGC", "assay": "Cleavage test with MMP-2, cleavage products examined by HPLC", "assay_type": "biochemical", "method": "The incubation in HEPES buffer with active MMP-2 was made for 2 hours.\n[…]. For this 1% APMA stock solution (100 mM in DMSO) was added to the solution containing the MMP-2 proenzyme and the compounds (final APMA concentration: 1 mM, with 1% DMSO).\nIn the following also an incubation of 2 hours was performed. In addition the tests were made with the MMP-2 inhibitor I (Calbiochem). All six compounds were, as a control, also incubated into HEPES buffer without MMP-2 for two hours."}, "[4]": {"tested_on": "U373 and LN18 glioma cells", "assay": "Magnetic resonance relaxometry on glioma cell centrifugates", "assay_type": "cell-based, human", "method": "Human U373 and LN18 glioma cells were grown in 25 cm^2 culture flasks (70% confluence). Accutase™ (PAA laboratories, Pasching, Austria) was added to strip off the cells from the bottom of the culture flasks.\nIn a first try the cells were collected and subsequently distributed on 16 Eppendorf-vials (6×10^6 cells per vial). The cells in the first four vials were used as a control (only RPMI medium with and also without APMA, two cell lines). […] In the following it was washed for three times with PBS and centrifuged with 800 rpm (rounds per minute) for 5 minutes.\nIn another test adherent U373 and LN18 glioma cells were incubated with the compounds 2A, 4A and […], and were stripped off in the following and collected in Eppendorf vials for the MRT. The MRT analysis of the Eppendorf vials with the cell centrifugates were performed in a 3 Tesla full body MRT apparatus (Trio, Siemens Magnetom Sonata, circular polarised knee coil).\nThe following spin echo sequence was used to obtain sagittal T1-weighted MRT images.\n[…] TE (echo time): 7.4 ms, flip angle 90°, averages: 1, concatenations: 2, measurements: 2, number of slices: 19, distance factor: 30%, slice thickness: 3 mm, field of view read: 180 mm, field of view phase: 100%, base resolution: 256, phase resolution: 100%, voxel size: 0.7×0.7×3.0 mm, scan time: 1:48 min.\nBy means of multiple spin echo measurements (TR: 20-8000 ms, 50 different TR values) different signal intensities were measured through which the T1 relaxation time could be determined.\nTR: 20-8000 ms (50 different TR values), TE: 6.4 ms, flip angle 90°, averages: 1, measurements; 1, number of slices: 1, slice thickness: 1 mm, field of view read: 120 mm, field of view phase: 87.5, base resolution 128, phase resolution; 100% voxel size: 0.9×0.9×1 mm.\nFor the analysis and calculations a Matlab programme (Math Works, Natick, Mass., USA) was used. The T1 values were determined via a two-parameter fit. All signal curves were examined and rated as being mono-exponential. All tests were performed three times."}},
  "note": "Primed or numbered codes have the meaning given here. Where no end group is shown, it is not given here. The star is where a group is joined. DOTA = O=C(O)CN1CCN(CC(=O)O)CCN(CC(=O)*)CCN(CC(=O)O)CC1; FITC′ = fluorescent dye, fluorescein isothiocyanate",
  "data": [
    {"substance": "K-(GdDOTA)-G-PLGLA-GG-PKKKRKVRRRR-K(FITC)-GG-K(GdDOTA) (K(DOTA)GPLGLAGGPKKKRKVRRRRK(FITC′)GGK(DOTA)-NH2; also: DOTA groups complexed with Gd (GdDOTA)) [V4A]", "values": [
      {"measurement": "fluorescence after cleavage by MMP-2 in comparison to the components 2 and 2A", "setting": "LN18 glioma cells", "value": "stronger fluorescence"},
      {"measurement": "staining of the cell nuclei, MMP-2 inactive", "setting": "[1]", "value": "few stained cell nuclei"},
      {"measurement": "intensity of the signal in the tumor in comparison to the native image", "setting": "[2]; 30 minutes after intraperitoneal administration, FIG. 8", "value": "considerably decreases"},
      {"measurement": "signal intensity in the brain tumors in MR tomography", "setting": "[2]; intraperitoneal administration, nude mice with intra-cerebral LN18 brain tumors", "value": "distinct increase of the signal intensity"},
      {"measurement": "signal intensity in the brain tumors, administered in the presence of an MMP-2 inhibitor", "setting": "[2]; intraperitoneal, with MMP-2 inhibitor, remained only for a short time", "value": "very minor increase of the signal intensity"},
      {"measurement": "signal intensity in the brain tumors one day after the administration", "setting": "[2]; intraperitoneal, one day after administration", "value": "attenuated form"},
      {"measurement": "apoptosis (binding of Alexa annexin to phosphatidyl serine; morphologic alterations), MMP-2 active", "setting": "[3]", "value": "apoptotic"},
      {"measurement": "cleavage of the compound by MMP-2 (HPLC)", "setting": "MMP-2; already active MMP-2 or proform of MMP-2 activated by APMA, 2 hours in HEPES buffer", "value": "cleaved"},
      {"measurement": "cleavage of the compound by MMP-2 in presence of the inhibitor (HPLC)", "setting": "MMP-2; with MMP-2 inhibitor I", "value": "prevented"},
      {"measurement": "shortening of the T1 time in comparison to the native control, inhibitor-containing medium", "setting": "[4]; 26 and 130 μM, with MMP-2 inhibitor", "value": "minor shortening of the T1 time"},
      {"measurement": "signal intensity at TR: 400 ms, active MMP-2 versus inactive MMP-2", "setting": "[4]; LN18 glioma cell centrifugates, 26 and 130 μm, washed and centrifuged three times", "value": "considerably higher signal intensity"},
      {"measurement": "shortening of the T1 time in comparison to component 2A, inhibitor-free medium", "setting": "[4]; depending on the concentration", "value": "stronger shortening of the T1 time"},
      {"measurement": "shortening of the T1 time, inhibitor-free medium", "setting": "[4]; without MMP-2 inhibitor", "value": "more distinct shortening of the T1 time"}
    ]}
  ]
}
